Experimental data reported in ChEMBL document CHEMBL3091433, “Structure-based design of substituted hexafluoroisopropanol-arylsulfonamides as modulators of RORc” (Bioorg Med Chem Lett, 2013).

Tests used:
[1] = target: T1, Nuclear receptor ROR-beta (Homo sapiens, UniProt Q92753); assay: Inverse agonist activity at GAL4-fused human RORb expressed in HEK293T cells assessed as suppression of basal transcriptional activity after 20 hrs by dual-glo luciferase reporter gene assay; format: cell-based, HEK-293T
T1 sequence (Q92753 whole entry): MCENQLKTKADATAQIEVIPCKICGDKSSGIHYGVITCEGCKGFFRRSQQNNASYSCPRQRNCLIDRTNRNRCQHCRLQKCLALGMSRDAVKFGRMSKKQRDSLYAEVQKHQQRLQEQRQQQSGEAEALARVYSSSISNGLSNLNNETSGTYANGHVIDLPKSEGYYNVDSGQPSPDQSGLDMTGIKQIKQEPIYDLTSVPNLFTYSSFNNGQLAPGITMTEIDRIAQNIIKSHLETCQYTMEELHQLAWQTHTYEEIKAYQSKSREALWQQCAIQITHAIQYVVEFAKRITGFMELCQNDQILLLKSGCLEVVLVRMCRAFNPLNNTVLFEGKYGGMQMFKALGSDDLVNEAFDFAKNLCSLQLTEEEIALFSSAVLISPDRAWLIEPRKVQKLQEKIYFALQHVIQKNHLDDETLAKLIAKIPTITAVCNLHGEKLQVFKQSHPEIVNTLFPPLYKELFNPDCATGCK

[2] = target: T2, Nuclear receptor subfamily 1 group I member 2 (Homo sapiens, UniProt O75469); assay: Agonist activity at GAL4-fused human PXR expressed in HEK293T cells assessed as activation of basal transcriptional activity after 20 hrs by dual-glo luciferase reporter gene assay; format: cell-based, HEK-293T
T2 sequence (O75469 whole entry): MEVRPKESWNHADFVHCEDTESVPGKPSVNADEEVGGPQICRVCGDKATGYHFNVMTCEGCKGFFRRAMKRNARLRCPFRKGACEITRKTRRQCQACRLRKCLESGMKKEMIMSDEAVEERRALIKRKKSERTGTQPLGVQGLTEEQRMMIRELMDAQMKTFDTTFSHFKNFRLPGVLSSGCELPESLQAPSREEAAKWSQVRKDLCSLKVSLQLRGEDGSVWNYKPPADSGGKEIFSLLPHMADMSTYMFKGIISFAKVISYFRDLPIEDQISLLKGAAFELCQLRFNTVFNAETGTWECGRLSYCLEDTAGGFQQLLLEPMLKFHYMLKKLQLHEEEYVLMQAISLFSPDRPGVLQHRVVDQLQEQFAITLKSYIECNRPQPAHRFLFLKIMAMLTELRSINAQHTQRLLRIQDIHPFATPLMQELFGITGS

[3] = target: T3, Oxysterols receptor LXR-alpha (Homo sapiens, UniProt Q13133)
T3 sequence (Q13133 whole entry): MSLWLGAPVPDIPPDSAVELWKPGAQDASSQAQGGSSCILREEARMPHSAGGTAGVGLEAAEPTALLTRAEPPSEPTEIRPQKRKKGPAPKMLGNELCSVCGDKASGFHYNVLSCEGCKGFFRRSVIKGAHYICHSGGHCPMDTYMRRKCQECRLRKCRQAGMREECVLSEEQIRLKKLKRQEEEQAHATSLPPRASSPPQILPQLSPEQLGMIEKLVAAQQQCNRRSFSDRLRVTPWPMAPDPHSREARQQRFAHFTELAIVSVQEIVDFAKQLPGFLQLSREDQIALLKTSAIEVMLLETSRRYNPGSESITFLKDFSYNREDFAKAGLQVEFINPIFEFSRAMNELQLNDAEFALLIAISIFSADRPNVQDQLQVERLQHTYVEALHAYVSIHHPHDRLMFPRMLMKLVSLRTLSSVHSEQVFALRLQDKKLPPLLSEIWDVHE
Description: Agonist activity at GAL4-fused human LXRalpha expressed in HEK293T cells assessed as activation of basal transcriptional activity after 20 hrs by dual-glo luciferase reporter gene assay

[4] = target: T4, Nuclear receptor ROR-alpha (Homo sapiens, UniProt P35398); assay: Inverse agonist activity at GAL4-fused human RORa expressed in HEK293T cells assessed as suppression of basal transcriptional activity after 20 hrs by dual-glo luciferase reporter gene assay; format: cell-based, HEK-293T
T4 sequence (P35398 whole entry): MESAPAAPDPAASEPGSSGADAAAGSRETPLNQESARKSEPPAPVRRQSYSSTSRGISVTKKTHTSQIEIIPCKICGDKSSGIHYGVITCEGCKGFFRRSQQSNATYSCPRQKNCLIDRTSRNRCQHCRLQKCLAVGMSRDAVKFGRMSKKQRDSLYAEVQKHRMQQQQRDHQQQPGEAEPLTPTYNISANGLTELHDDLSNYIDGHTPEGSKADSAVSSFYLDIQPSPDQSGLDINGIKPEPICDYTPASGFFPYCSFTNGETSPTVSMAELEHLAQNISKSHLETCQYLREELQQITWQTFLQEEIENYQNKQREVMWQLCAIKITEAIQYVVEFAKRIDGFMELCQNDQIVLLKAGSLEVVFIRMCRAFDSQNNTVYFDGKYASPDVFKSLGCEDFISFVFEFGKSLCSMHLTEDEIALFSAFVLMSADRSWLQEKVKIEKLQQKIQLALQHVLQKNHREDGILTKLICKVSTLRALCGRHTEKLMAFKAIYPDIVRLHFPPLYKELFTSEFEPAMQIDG

[5] = target: T5, Nuclear receptor ROR-gamma (Homo sapiens, UniProt P51449)
T5 sequence (P51449 whole entry): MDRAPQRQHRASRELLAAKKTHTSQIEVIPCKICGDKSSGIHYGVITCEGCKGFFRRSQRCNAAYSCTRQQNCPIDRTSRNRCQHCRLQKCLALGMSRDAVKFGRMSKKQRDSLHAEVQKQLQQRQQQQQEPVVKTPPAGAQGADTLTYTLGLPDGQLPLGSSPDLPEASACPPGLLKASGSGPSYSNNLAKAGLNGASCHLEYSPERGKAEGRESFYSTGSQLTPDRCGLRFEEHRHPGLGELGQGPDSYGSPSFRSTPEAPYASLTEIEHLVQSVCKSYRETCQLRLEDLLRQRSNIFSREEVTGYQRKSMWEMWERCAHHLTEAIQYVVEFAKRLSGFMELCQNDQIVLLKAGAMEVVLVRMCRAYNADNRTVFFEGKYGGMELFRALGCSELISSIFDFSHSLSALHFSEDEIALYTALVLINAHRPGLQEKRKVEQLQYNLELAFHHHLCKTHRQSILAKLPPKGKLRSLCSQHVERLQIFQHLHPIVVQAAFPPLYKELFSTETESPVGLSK
Description: Displacement of [3H2]-25-hydroxycholesterol from N-terminal 6xHis-tagged human RORc ligand binding domain (241 to 486) expressed in bacterial expression system after 3 hrs by scintillation counting analysis

[6] = target: T6, PXR (NR1I2) (Homo sapiens, UniProt O75469); assay: in vitro; settings: HEK293T cells expressing GAL4-fused human PXR
T6 sequence (O75469 whole entry): T2 sequence (O75469 whole entry)
Description: Agonist activity at GAL4-fused human PXR expressed in HEK293T cells assessed as activation of basal transcriptional activity after 20 hrs by dual-glo luciferase reporter gene assay relative to apo-receptor

[7] = target: T5, Nuclear receptor ROR-gamma; remark: listed apart in the source
Description: Inverse agonist activity at N-terminal 6xHis-tagged human RORc ligand binding domain (241 to 486) expressed in bacterial expression system assessed as inhibition of SRC1 co-activator peptide recruitment after 3 hrs by TR-FRET analysis

O=S(=O)(c1ccc(F)cc1)N(CC(F)(F)F)c1ccc(C(O)(C(F)(F)F)C(F)(F)F)cc1
EC50 [1]: 6000 nM
EC50 [2]: 194 nM
EC50 [3]: 719 nM
EC50 [4]: 6000 nM
IC50 [5]: 34 nM
fold induction at 20 h [6]: 30
EC50 [7]: 19 nM

N#Cc1ccc(S(=O)(=O)N(CC(F)(F)F)c2ccc(C(O)(C(F)(F)F)C(F)(F)F)cc2)cc1
EC50 [1]: 5000 nM
EC50 [2]: 571 nM
EC50 [3]: > 10000 nM
EC50 [4]: 7000 nM
IC50 [5]: 50 nM
fold induction at 20 h [6]: 27
EC50 [7]: 61 nM

CCN(c1ccc(C(O)(C(F)(F)F)C(F)(F)F)cc1)S(=O)(=O)c1ccccc1
EC50 [1]: 4000 nM
EC50 [2]: 39 nM
EC50 [3]: 3000 nM
EC50 [4]: 5000 nM
IC50 [5]: 245 nM
fold induction at 20 h [6]: 24
EC50 [7]: 190 nM
